The assay relates to mTOR signaling. Briefly: mTOR signaling in C2C12 myoblasts (Western blot, ratio of P-p70-389 to total p70). The class given is cell-based. The settings on record: for change in ratio of P-p70-389 to total p70 (mTOR signaling) compared to vehicle/control, in words / mTOR signaling compared with another stimulant, in words: 10 or 30 μM, 20 minutes; for mTOR signaling (ratio of P-p70-389 to total p70): 20 minutes stimulation, compared to vehicle. The protocol:
C2C12 myoblasts were plated at approximately 30% confluence and grown for 24 hours in 10% FBS High Glucose DMEM with antibiotics (100m/ml streptomycin and 100 U/ml penicillin; Sigma). At 16 hours prior to the experiment, myoblasts cells were switched to serum free high glucose DMEM (no antibiotics) and were approximately 70% confluent at the time of the experiment. All stimulants were dissolved in chloroform to yield a concentration of 10 mg/mL, with the exception of DAG which was dissolved at 2 mg/mL and G3P which was dissolved at 6 mg/mL. […] Accordingly, cells were stimulated for 20 minutes with vehicle (Control; 100 μL of PBS) 10 or 30 μM of RIMFROST Sublime Krill Oil Extract (Rimfrost USA, Inc, Merry Hill, N.C.), soy-derived (S) phosphatidylserine (S-PS), phosphatidylinositol (S-PI), phosphatidylethanolamine (S-PE), phosphatidylcholine (S-PC), phosphatidic acid (S-PA), lysophosphatidic acid (S-LPA), diacylglycerol (DAG), glycerol-3-phosphate (G3P), or egg-derived PA (E-PA). Cells were then harvested in lysis buffer (40 mM Tris, pH 7.5; 1 mM EDTA; 5 mM EGTA; 0.5% Triton X-100; 25 mM (3-glycerophosphate; 25 mM NaF; 1 mM Na3VO4; 10 μg/mL leupeptin; and 1 mM PMSF) and subjected to immunoblotting as previously described. The ratio of P-p70-389 to total p70 was used as readout for mTOR signaling. As used in the Examples disclosed herein, 10 μM of RIMFROST Sublime Krill Oil Extract contains 0.01253 μM PS, which is 0.6% of the phospholipid content; and 30 μM of RIMFROST Sublime Krill Oil Extract contains 0.0376 μM PS, which is 0.6% of the phospholipid content.
The data was analyzed using a one way analysis of variance (ANOVA). A Tukey's Multiple Comparison Test was used to determine significant differences between treatments. Significance was set at P<0.05. Statistical analyses were performed on SigmaStat software (San Jose, Calif., USA).
In accordance with the materials and methods described above, krill extract, S-PC, S-PS, and S-PA were tested for their ability to activate mTOR signaling. […] The samples were then subjected to Western blot analysis for p70S6K phosphorylation on the threonine 389 residue (p′70-389) and total p70. The ratio of these signals was calculated and used as a marker of mTOR signaling.
For orientation: Immunoblotting shows a protein as a band on a membrane.

Regarding `O=P(O)(O)OCC(O)CO` (stereo not drawn) [G3P, glycerol-3-phosphate], the “change in ratio of P-p70-389 to total p70 (mTOR signaling) compared to vehicle/control, in words” value is recorded as “no increase”.
Consider phosphatidylethanolamine [S-PE], for which the “change in ratio of P-p70-389 to total p70 (mTOR signaling) compared to vehicle/control, in words” value is on record as “no increase”.
On to lysophosphatidic acid [S-LPA], for which the “mTOR signaling compared with another stimulant, in words” value is “to a greater degree than did E-PA”. Moreover, under “taken as 10 μM”, the “mTOR signaling (ratio of P-p70-389 to total p70)” value worked out at 638%. Also, the “mTOR signaling (ratio of P-p70-389 to total p70)” value (taken as 30 μM) came out at 694%.
In the same order, the values of phosphatidic acid [S-PA] are “to a greater degree than did E-PA”, 658% and 636%.
Turning to phosphatidylserine [S-PS], the “mTOR signaling (ratio of P-p70-389 to total p70)” value runs as follows: (taken as 10 μM) 529%; (taken as 30 μM) 558%.
phosphatidic acid [E-PA]: the “mTOR signaling (ratio of P-p70-389 to total p70)” value runs as follows: (taken as 10 μM) 206%; (taken as 30 μM) 221%.
Take phosphatidylinositol [S-PI]: the “change in ratio of P-p70-389 to total p70 (mTOR signaling) compared to vehicle/control, in words” value is recorded as “no increase”.
Still for that read-out and setting: to diacylglycerol [DAG] belongs “no increase”; to phosphatidylcholine [S-PC], “no increase”.

(Values after US20180243345A1, “METHOD FOR INCREASING MUSCLE GROWTH USING KRILL EXTRACT” (AVOCA, INC., priority 2015, published 2018).)
